# Measured values from US4731109A, “Herbicidal 2-haloacetanilides” (Monsanto Company, priority 1982, dated 1988).
# Read-outs that look alike come from different tables or passages of the source.
# How the values were obtained:
# Assay type in all cases: in vivo
# [1] = system: purple nutsedge; assay: Greenhouse pre-emergence GR15/GR85 selectivity test; conditions: Table XV; for selectivity factor (GR15/GR85): in rape
# Source text: A good grade of top soil is placed in aluminum pans and compacted to a depth of three-eighths to one-half inch from the top of the pan. On the top of the soil is placed a number of seeds or vegetative propagules of various plant species. The soil required to level fill the pans after seeding or adding vegetative propagules is weighed into a pan. The soil and a known amount of the active ingredient applied in a solvent or as a wettable powder suspension are thoroughly mixed, and used to cover the prepared pans. After treatment, the pans are given an initial overhead irrigation of eater, equivalent to one-fourth inch (0.64 cm) rainfall, then watered by subirrigation as need to give adequate moisture for germination and growth. As an alternative procedure, the overhead irrigation may be omitted. Observations are made about 2-3 weeks after seeding and treatment.
# In the discussion and tables of data below, reference is made to herbicide application rates symbolized as "GR15 " and "GR85 "; these rates are given in kilograms per hectare (kg/ha) which are convertible into pounds per acre (lbs/A) by dividing the kg/ha rate by 1.12.
# A further guide to the effectiveness of a chemical as a selective herbicide is the "selectivity factor" ("SF") for a herbicide in given crops and weeds. The selectivity factor is a measure of the relative degree of crop safety and weed injury and is expressed in terms of the GR15 /GR85 ratio, i.e., the GR15 rate for the crop divided by the GR85 rate for the weed, both rates in kg/ha (lb/A). In the tables below, selectivity factors are shown in parenthesis following the GR85 rate for each weed; the symbol "NS" indicates "non-selective". Marginal or undetermined selectivity is indicated by a dash (--).
# Additionally, pre-emergence herbicidal data from other tests have established that compounds according to this invention also selectively suppress quackgrass, yellow nutsedge and/or other weeds in one or more of the crops cotton, peanuts, bush beans and/or rape. For example, in Table VI are presented data showing the herbicidal selectivity of the compounds of Examples 1 and 2 against quackgrass in rape and snap beans. Unless otherwise noted; greenhouse tests in Table VI and in other tables below involved herbicide treatments by soil incorporation and an initial overhead irrigation followed by subirrigation as described above.
# In other greenhouse tests, compounds according to this invention have shown selective control of a variety of annual and perennial weeds in various crops. As further illustrative, the compound of Example 1 selectively controlled purple nutsedge in both corn nd soybeans, the respective crop/weed GR15 /GR85 ratios (expressed in kg/ha) being 0.67/0.25 (S.F.=2.7) in corn and 1.1/0.25 (S.F.=4.5) in soybeans. The compound of Example 8 has shown selective control of yellow nutsedge and quackgrass in corn and soybeans. The respective crop/yellownutsedge GR15 /GR85 ratios being >2.2/0.95 (S.F.=2.5) in corn; 2.2/0.5 (SF=4.5) in soybeans and the respective GR15 /GR85 ratios for both corn and soybeans in quackgrass being >2.2/0.5 (S.F.=4.5). In a test against yellow nutsedge in cotton, the GR15 /GR85 ratio (average of two replicates) was 2.0/0.95 (S.F.=2).
# In another greenhouse test, the compounds of Examples 3-5, 9 and 10 were tested for their herbicidal efficacy against a variety of resistant annual and perennial weeds in rape.
# [2] = system: prickly sida; assay: as above; conditions: Table XV
# In short: (§1)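 Pre-emergence soil-incorporation test: seeded pans were covered with topsoil mixed with active ingredient (in solvent or as wettable powder), overhead-irrigated (0.64 cm) or not, then subirrigated. Plants were scored about 2-3 weeks after treatment. GR15/GR85 rates are in kg/ha, and selectivity factor is crop GR15 divided by weed GR85.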
# [3] = system: common purslane; assay: as above; conditions: Table XV
# In short: as §1
# [4] = system: common ragweed; assay: as above; conditions: Table XV; for selectivity factor (GR15/GR85): in rape
# In short: as §1
# [5] = system: redroot pigweed; assay: as above; conditions: Table XV; for selectivity factor (GR15/GR85): in rape
# In short: as §1
# [6] = system: Barnyardgrass; assay: Resistance to leaching and resulting herbicidal efficacy; conditions: for inhibition at 140 g/ha / inhibition at 560 g/ha / inhibition at 2360 g/ha / inhibition at 2200 g/ha: Echinochloa crus-galli, read-out: Percent Inhibition
# Procedure: Laboratory tests were conducted to determine the resistance of herbicides according to this invention to leaching into the soil and resulting herbicidal efficacy. […] The pots containing the treated soil were subjected to leaching by placing on a turntable which rotated under two nozzle tips of a water container calibrated to deliver one inch (2.5 cm) of water per hour simulating rainfall. Leaching rates were adjusted by varying the amount of time on the turntable. Water was delivered to the soil in the pots and allowed to percolate through the filter paper and drainage holes. The pots were then allowed to sit for three days at ambient room temperature. The treated soil in the pots was then removed, crumbled and placed as a surface layer on top of other pots containing the above soils seeded with barnyardgrass seeds. The pots were then placed on greenhouse benches, sub-irrigated and allowed to grow for 2-3 weeks. Visual ratings of percent growth inhibition compared to control (untreated) pots and fresh weights for barnyardgrass were recorded; the data from the control represents six replications and that for the test compounds three replications; test data are shown in Table XVIII.
# [7] = Drummer silt clay, 0.14 Kg/Ha, rain 0 cm
# [8] = Drummer silt clay, 0.14 Kg/Ha, rain 1.27 cm
# [9] = Drummer silt clay, 0.14 Kg/Ha, rain 5.08 cm
# [10] = Drummer silt clay, 0.14 Kg/Ha, rain 10.16 cm
# [11] = Drummer silt clay, 0.56 Kg/Ha, rain 0 cm
# [12] = Drummer silt clay, 0.56 Kg/Ha, rain 1.27 cm
# [13] = Drummer silt clay, 0.56 Kg/Ha, rain 5.08 cm
# [14] = Drummer silt clay, 0.56 Kg/Ha, rain 10.16 cm
# [15] = Ray silt loam, 0.14 Kg/Ha, rain 0 cm
# [16] = Ray silt loam, 0.14 Kg/Ha, rain 1.27 cm
# [17] = Ray silt loam, 0.14 Kg/Ha, rain 5.08 cm
# [18] = Ray silt loam, 0.56 Kg/Ha, rain 0 cm
# [19] = Ray silt loam, 0.56 Kg/Ha, rain 1.27 cm
# [20] = Ray silt loam, 0.56 Kg/Ha, rain 5.08 cm
# [21] = Ray silt loam, 0.56 Kg/Ha, rain 10.16 cm
# [22] = Ray silt loam, 2.36 Kg/Ha, rain 0 cm
# [23] = Ray silt loam, 2.36 Kg/Ha, rain 1.27 cm
# [24] = Ray silt loam, 2.36 Kg/Ha, rain 5.08 cm
# [25] = Ray silt loam, 2.36 Kg/Ha, rain 10.16 cm
# [26] = Ray silt loam, 0.14 Kg/Ha, rain 10.16 cm
# [27] = Ray silt loam, 2.2 Kg/Ha, rain 0 cm
# [28] = Ray silt loam, 2.2 Kg/Ha, rain 1.27 cm
# [29] = Ray silt loam, 2.2 Kg/Ha, rain 5.08 cm
# [30] = Ray silt loam, 2.2 Kg/Ha, rain 10.16 cm
smiles,measurement,setting,value
"CCCOCN(C(=O)CCl)c1c(C)cccc1C(F)(F)F [Example 3, N--(n-propoxymethyl)-2'-trifluoromethyl-6'-methyl-2-chloroacetanilide]",GR85 Rate,[1],0.12 Kg/Ha
same,selectivity factor (GR15/GR85),[1],7.5
same,GR85 Rate,[2],> 1.12 Kg/Ha
same,selectivity factor (GR15/GR85),[2]; in rape,NS (non-selective)
same,GR85 Rate,[3],0.70 Kg/Ha
same,selectivity factor (GR15/GR85),[3]; in rape,1.3
same,GR85 Rate,[4],0.49 Kg/Ha
same,selectivity factor (GR15/GR85),[4],1.8
same,GR85 Rate,[5],0.39 Kg/Ha
same,selectivity factor (GR15/GR85),[5],2.3
same,inhibition at 140 g/ha,[6]; [7],81%
same,inhibition at 140 g/ha,[6]; [8],99%
same,inhibition at 140 g/ha,[6]; [9],94%
same,inhibition at 140 g/ha,[6]; [10],54%
same,inhibition at 560 g/ha,[6]; [11],100%
same,inhibition at 560 g/ha,[6]; [12],100%
same,inhibition at 560 g/ha,[6]; [13],100%
same,inhibition at 560 g/ha,[6]; [14],100%
same,inhibition at 2360 g/ha,"[6]; Drummer silt clay, 2.36 Kg/Ha, rain 0 cm",100%
same,inhibition at 2360 g/ha,"[6]; Drummer silt clay, 2.36 Kg/Ha, rain 1.27 cm",100%
same,inhibition at 2360 g/ha,"[6]; Drummer silt clay, 2.36 Kg/Ha, rain 5.08 cm",100%
same,inhibition at 2360 g/ha,"[6]; Drummer silt clay, 2.36 Kg/Ha, rain 10.16 cm",100%
same,inhibition at 140 g/ha,[6]; [15],99%
same,inhibition at 140 g/ha,[6]; [16],95%
same,inhibition at 140 g/ha,[6]; [17],63%
same,inhibition at 560 g/ha,[6]; [18],100%
same,inhibition at 560 g/ha,[6]; [19],100%
same,inhibition at 560 g/ha,[6]; [20],94%
same,inhibition at 560 g/ha,[6]; [21],52%
same,inhibition at 2360 g/ha,[6]; [22],100%
same,inhibition at 2360 g/ha,[6]; [23],100%
same,inhibition at 2360 g/ha,[6]; [24],100%
same,inhibition at 2360 g/ha,[6]; [25],95%
same,inhibition at 140 g/ha,[6]; [26],14%
same,Fresh Weight,[6]; [15],0.05 Grams
same,Fresh Weight,[6]; [16],0.22 Grams
same,Fresh Weight,[6]; [17],1.53 Grams
same,Fresh Weight,[6]; [26],3.51 Grams
same,Fresh Weight,[6]; [18],0 Grams
same,Fresh Weight,[6]; [19],0 Grams
same,Fresh Weight,[6]; [20],0.24 Grams
same,Fresh Weight,[6]; [21],1.97 Grams
same,Fresh Weight,[6]; [22],0 Grams
same,Fresh Weight,[6]; [23],0 Grams
same,Fresh Weight,[6]; [24],0 Grams
same,Fresh Weight,[6]; [25],0.22 Grams
"Cc1cccc(C(F)(F)F)c1N(COCC(C)C)C(=O)CCl [Example 5, N--(isobutoxymethyl)-2'-trifluoromethyl-6'-methyl-2-chloroacetanilide]",GR85 Rate,[1],0.23 Kg/Ha
same,selectivity factor (GR15/GR85),[1],> 4.9
same,GR85 Rate,[2],> 1.12 Kg/Ha
same,GR85 Rate,[3],> 1.12 Kg/Ha
same,GR85 Rate,[4],0.98 Kg/Ha
same,selectivity factor (GR15/GR85),[4],> 1.1
same,GR85 Rate,[5],0.50 Kg/Ha
same,selectivity factor (GR15/GR85),[5],> 2.2
same,inhibition at 140 g/ha,[6]; [7],12%
same,inhibition at 140 g/ha,[6]; [8],26%
same,inhibition at 140 g/ha,[6]; [9],20%
same,inhibition at 140 g/ha,[6]; [10],12%
same,inhibition at 560 g/ha,[6]; [11],50%
same,inhibition at 560 g/ha,[6]; [12],100%
same,inhibition at 560 g/ha,[6]; [13],93%
same,inhibition at 560 g/ha,[6]; [14],84%
same,inhibition at 2200 g/ha,"[6]; Drummer silt clay, 2.2 Kg/Ha, rain 0 cm",100%
same,inhibition at 2200 g/ha,"[6]; Drummer silt clay, 2.2 Kg/Ha, rain 1.27 cm",100%
same,inhibition at 2200 g/ha,"[6]; Drummer silt clay, 2.2 Kg/Ha, rain 5.08 cm",100%
same,inhibition at 2200 g/ha,"[6]; Drummer silt clay, 2.2 Kg/Ha, rain 10.16 cm",100%
same,inhibition at 140 g/ha,[6]; [15],84%
same,inhibition at 140 g/ha,[6]; [16],90%
same,inhibition at 140 g/ha,[6]; [17],58%
same,inhibition at 560 g/ha,[6]; [18],99%
same,inhibition at 560 g/ha,[6]; [19],99%
same,inhibition at 560 g/ha,[6]; [20],90%
same,inhibition at 560 g/ha,[6]; [21],72%
same,inhibition at 2200 g/ha,[6]; [27],100%
same,inhibition at 2200 g/ha,[6]; [28],100%
same,inhibition at 2200 g/ha,[6]; [29],99%
same,inhibition at 2200 g/ha,[6]; [30],84%
same,inhibition at 140 g/ha,[6]; [26],29%
same,Fresh Weight,[6]; [15],0.66 Grams
same,Fresh Weight,[6]; [16],0.43 Grams
same,Fresh Weight,[6]; [17],1.72 Grams
same,Fresh Weight,[6]; [26],2.92 Grams
same,Fresh Weight,[6]; [18],0.04 Grams
same,Fresh Weight,[6]; [19],0.02 Grams
same,Fresh Weight,[6]; [20],0.41 Grams
same,Fresh Weight,[6]; [21],1.17 Grams
same,Fresh Weight,[6]; [27],0 Grams
same,Fresh Weight,[6]; [28],0 Grams
same,Fresh Weight,[6]; [29],0.03 Grams
same,Fresh Weight,[6]; [30],0.64 Grams
